Key:
Format in all cases: in vitro ADME
[1] = Microsomal stability assay, human liver microsomes; conditions: for CLINT human: human liver microsomes 0.5 mg/mL, 1 μM compound; for CLHEP human: predicted hepatic clearance, human microsomes
[2] = Microsomal stability assay, rat liver microsomes; conditions: for CLHEP rat: predicted hepatic clearance, rat microsomes; for CLINT rat: rat liver microsomes 0.5 mg/mL, 1 μM compound
[3] = Microsomal stability assay, mouse liver microsomes
[4] = mouse liver microsomes 0.5 mg/mL, 1 μM compound
[5] = predicted hepatic clearance, mouse microsomes
[6] = male, CD-1, mouse, 1 μM, pH 7.4

CLINT human [1] | CLHEP human [1] | CLHEP rat [2] | CLINT rat [2] | CLINT mouse [3, 4] | CLHEP mouse [3, 5] | CLHEP mouse [3, 6] | CLINT mouse ([3]; mouse, microsomes) | SMILES
7.53 mL/min/kg body weight | 5.54 mL/min/kg body weight | 21 mL/min/kg body weight | 31 mL/min/kg body weight | 55 mL/min/kg body weight | 34 mL/min/kg body weight | – | – | O=C(N[C@@H](Cn1ccnc1)c1ccc(Cl)cc1Cl)c1ccc(-c2nnc(-c3ccc(F)c(F)c3)o2)cc1 [Compound 1, (R)-N-(1-(2,4-Dichlorophenyl)-2-(1H-imidazol-1-yl)ethyl)-4-(5-(3,4-difluorophenyl)-1,3,4-oxadiazol-2-yl)benzamide]
6.06 mL/min/kg body weight | 4.07 mL/min/kg body weight | 24 mL/min/kg body weight | 36 mL/min/kg body weight | 60 mL/min/kg body weight | 36 mL/min/kg body weight | – | – | O=C(N[C@@H](Cn1ccnc1)c1ccc(Cl)cc1Cl)c1ccc(-c2nnc(-c3ccc(C(F)(F)F)c(F)c3)o2)cc1 [Compound 2, (R)-N-(1-(2,4-Dichlorophenyl)-2-(1H-imidazol-1-yl)ethyl)-4-(5-(3-fluoro-4-(trifluoromethyl)phenyl)-1,3,4-oxadiazol-2-yl)benzamide]
16.5 mL/min/kg body weight | 9.24 mL/min/kg body weight | 34 mL/min/kg body weight | 64 mL/min/kg body weight | 88 mL/min/kg body weight | 44 mL/min/kg body weight | – | – | O=C(N[C@@H](Cn1ccnc1)c1ccc(Cl)cc1Cl)c1ccc(-c2nnc(-c3ccc(OCC(F)(F)F)cc3F)o2)cc1 [Compound 3, (R)-N-(1-(2,4-Dichlorophenyl)-2-(1H-imidazol-1-yl)ethyl)-4-(5-(2-fluoro-4-(2,2,2-trifluoroethoxy)phenyl)-1,3,4-oxadiazol-2-yl)-benzamide]
11.3 mL/min/kg body weight | 7.33 mL/min/kg body weight | 29 mL/min/kg body weight | 50.4 mL/min/kg body weight | – | – | 43.6 mL/min/kg body weight | 84.7 mL/min/kg body weight | O=C(N[C@@H](Cn1ccnc1)c1ccc(Cl)cc1Cl)c1ccc(-c2nnc(-c3cc(F)cc(OCC(F)(F)F)c3)o2)cc1 [Compound 4, (R)-N-(1-(2,4-Dichlorophenyl)-2-(1H-imidazol-1-yl)ethyl)-4-(5-(3-fluoro-5-(2,2,2-trifluoroethoxy)phenyl)-1,3,4-oxadiazol-2-yl)-benzamide]
11.4 mL/min/kg body weight | 7.39 mL/min/kg body weight | 35 mL/min/kg body weight | 70 mL/min/kg body weight | – | – | 49 mL/min/kg body weight | 107 mL/min/kg body weight | O=C(N[C@@H](Cn1ccnc1)c1ccc(Cl)cc1Cl)c1ccc(-c2nnc(-c3ccc(Cl)c(Cl)c3)o2)cc1 [Compound 5, (R)-4-(5-(3,4-Dichlorophenyl)-1,3,4-oxadiazol-2-yl)-N-(1-(2,4-di-chlorophenyl)-2-(1H-imidazol-1-yl)ethyl)benzamide]
9.47 mL/min/kg body weight | 6.53 mL/min/kg body weight | 19 mL/min/kg body weight | 27 mL/min/kg body weight | 126 mL/min/kg body weight | 55 mL/min/kg body weight | – | – | O=C(N[C@@H](Cn1ccnc1)c1ccc(Cl)cc1Cl)c1ccc(-c2nnc(-c3cccc(Br)c3)o2)cc1 [Compound 6, (R)-4-(5-(3-Bromophenyl)-1,3,4-oxadiazol-2-yl)-N-(1-(2,4-di-chlorophenyl)-2-(1H-imidazol-1-yl)ethyl)benzamide]
13.1 mL/min/kg body weight | 8.06 mL/min/kg body weight | 35 mL/min/kg body weight | 68 mL/min/kg body weight | – | – | 56 mL/min/kg body weight | 152 mL/min/kg body weight | O=C(N[C@@H](Cn1ccnc1)c1ccc(Cl)cc1Cl)c1ccc(-c2nnc(-c3cccc(-c4ccccn4)c3)o2)cc1 [Compound 9, (R)-N-(1-(2,4-Dichlorophenyl)-2-(1H-imidazol-1-yl)ethyl)-4-(5-(3-(pyridin-2-yl)phenyl)-1,3,4-oxadiazol-2-yl)benzamide]
10.8 mL/min/kg body weight | 7.15 mL/min/kg body weight | 40 mL/min/kg body weight | 94 mL/min/kg body weight | 95 mL/min/kg body weight | 46 mL/min/kg body weight | – | – | O=C(N[C@@H](Cn1ccnc1)c1ccc(Cl)cc1Cl)c1ccc(-c2nnc(-c3ccc(-c4ccccn4)cc3)o2)cc1 [Compound 10, (R)-N-(1-(2,4-Dichlorophenyl)-2-(1H-imidazol-1-yl)ethyl)-4-(5-(4-(pyridin-2-yl)phenyl)-1,3,4-oxadiazol-2-yl)benzamide]
96.6 mL/min/kg body weight | 17.3 mL/min/kg body weight | 24.0 mL/min/kg body weight | 36.0 mL/min/kg body weight | 55.0 mL/min/kg body weight | 34 mL/min/kg body weight | – | – | O=C(N[C@@H](Cn1ccnc1)c1ccc(Cl)cc1Cl)c1ccc(-c2nnc(-c3cc(F)cc(-c4ccccn4)c3)o2)cc1 [Compound 11, (R)-N-(1-(2,4-Dichlorophenyl)-2-(1H-imidazol-1-yl)ethyl)-4-(5-(3-fluoro-5-(pyridin-2-yl)phenyl)-1,3,4-oxadiazol-2-yl)benzamide]
15 mL/min/kg body weight | 8.75 mL/min/kg body weight | 29.7 mL/min/kg body weight | 51.6 mL/min/kg body weight | 36.5 mL/min/kg body weight | 26.0 mL/min/kg body weight | – | – | O=C(N[C@@H](Cn1ccnc1)c1ccc(Cl)cc1Cl)c1ccc(-c2nnc(-c3ccc(-c4ccccn4)cc3F)o2)cc1 [Compound 12, (R)-N-(1-(2/4-Dichlorophenyl)-2-(1H-imidazol-1-yl)ethyl)-4-(5-(4-(3-fluoropyridin-2-yl)phenyl)-1,3,4-oxadiazol-2-yl)benzamide]
10.2 mL/min/kg body weight | 6.85 mL/min/kg body weight | 29.0 mL/min/kg body weight | 49.4 mL/min/kg body weight | 238 mL/min/kg body weight | 65 mL/min/kg body weight | – | – | O=C(N[C@@H](Cn1ccnc1)c1ccc(Cl)cc1Cl)c1ccc(-c2nnc(-c3cc(-c4ccccn4)ccc3F)o2)cc1 [Compound 13, (R)-N-(l-(2,4-Dichlorophenyl)-2-(TH-imidazol-l-yl)ethyl)-4-(5-(2-fluoro-5-(pyridin-2-yl)phenyl)-1,3,4-oxadiazol-2-yl)benzamide]
9.31 mL/min/kg body weight | 6.45 mL/min/kg body weight | 42 mL/min/kg body weight | 104 mL/min/kg body weight | – | – | 34.5 mL/min/kg body weight | 56 mL/min/kg body weight | CS(=O)(=O)c1ccc(-c2nnc(-c3ccc(C(=O)N[C@@H](Cn4ccnc4)c4ccc(Cl)cc4Cl)cc3)o2)cc1Cl [Compound 14, (R)-4-(5-(3-Chloro-4-(methylsulfonyl)phenyl)-1,3,4-oxadiazol-2-yl)-N-(1-(2,4-dichlorophenyl)-2-(1H-imidazol-1-yl)ethyl)benzamide]
14.9 mL/min/kg body weight | 8.37 mL/min/kg body weight | 19.5 mL/min/kg body weight | 27.0 mL/min/kg body weight | 104 mL/min/kg body weight | 48.3 mL/min/kg body weight | – | – | O=C(N[C@@H](Cn1ccnc1)c1ccc(Cl)cc1Cl)c1ccc(-c2nnc(-c3cc(F)cc(-c4ncncc4F)c3)o2)cc1 [Compound 15, (R)-N-(1-(2,4-Dichlorophenyl)-2-(1H-imidazol-1-yl)ethyl)-4-(5-(3-fluoro-5-(5-fluoropyrimidin-4-yl)phenyl)-1,3,4-oxadiazol-2-yl)-benzamide]
8.31 mL/min/kg body weight | 5.95 mL/min/kg body weight | 19.2 mL/min/kg body weight | 26.4 mL/min/kg body weight | 87 mL/min/kg body weight | 44 mL/min/kg body weight | – | – | O=C(N[C@@H](Cn1ccnc1)c1ccc(Cl)cc1Cl)c1ccc(-c2nnc(-c3ccccc3)o2)cc1 [VNI, (R)-N-(1-(2,4-dichlorophenyl)-2-(1H−imidazol-1-yl)ethyl)-4-(5-phenyl-1,3,4-oxadiazol-2-yl)-benzamide, reference compound]
